From US20220133833A1, “USE OF GRAPE AND/OR SOY SUPPLEMENTS AGAINST COVID-19 AND 92 OTHER VIRUSES AND BACTERIA INCLUDING OTHER UNKNOWN VIRUSES AND BACTERIA” (priority 2020, published 2022)
Read-outs that look alike come from different tables or passages of the source.

System: H1N1 virus
[1] = one-week preventive treatment, 0.2 ml/0.4 ml/mouse iv/ip QD, till the end of the study

APOA-1 [RAAS-2]
prevention of the Bird Flu Epidemiology in Mice (mice, H1N1): 100%
protection from body weight loss [1]: totally protected
protection from death [1]: totally protected
protection of body weight loss compared with oseltamivir treatment (preventive treatment): even better than that by oseltamivir treatment
adverse finding / tolerance (therapeutic group (G2), some of the mice, day 5 post H1N1 challenge and afterward): haematuria
protection from body weight loss (therapeutic treatment, 0.2 ml/0.4 ml iv/ip QD, all 5 mice, days 2 to 5 post H1N1 infection): partial
mice protected from death (therapeutic treatment, 0.2 ml/0.4 ml iv/ip QD, group of 5 mice): one mouse out of 5 mice
